Experimental data as given in patent US20180042930A1, “METHODS OF TREATMENT OF MALIGNANCIES” (Celgene Corporation, priority 2016, published 2018).

Key:
[1] = tested on: advanced hematologic malignancies with an IDH2 mutation; test: Phase 1/2 study of orally administered COMPOUND A: clinical activity (overall response rate); assay type: in vivo, human; details: 44 subjects treated at 100 mg QD; preliminary efficacy data
Excerpt: This was a Phase 1/2, multicenter, open-label, 3-part (Phase 1 dose escalation, Phase 1 Part 1 Expansion, and Phase 2), safety, PK/PD, and clinical activity evaluation of orally administered COMPOUND A in subjects with advanced hematologic malignancies, for example MDS, that harbor an IDH2 mutation. The study included a dose escalation phase to determine MTD/MAD and/or RP2D, an expansion phase (Part 1) to further evaluate the safety, tolerability, and clinical activity of COMPOUND A, and a Phase 2 to assess the clinical efficacy of COMPOUND A at the RP2D and to further evaluate safety in subjects with refractory and relapsed AML carrying an IDH2 mutation.
Subjects in the dose escalation phase and Part 1 Expansion had the extent of their disease assessed, including bone marrow biopsies and/or aspirates and peripheral blood, at screening, on C1D15, C2D1, and C3D1, every 28 days (peripheral blood only) or every 56 days (bone marrow biopsies and/or aspirates and peripheral blood) thereafter while on study drug treatment, independent of dose delays and/or dose interruptions, and/or at any time when progression of disease was suspected. Response to treatment and treatment decisions in all subjects was determined by the Investigators based on modified International Working Group (IWG) response criteria or other appropriate response criteria for the malignancy under study. […]

2-HG plasma levels = test: Phase 1/2 study: pharmacodynamic response, 2-HG plasma levels; assay type: in vivo, human
Protocol: Dose Escalation Phase: The dose escalation phase utilized a standard “3+3” design. During the dose escalation phase, consented eligible subjects with relapsed or refractory acute myelogenous leukemia (AML), untreated AML≧60 years of age who were not candidates for standard therapy, or myelodysplastic syndrome with refractory anemia with excess blasts were enrolled into sequential cohorts of increasing doses of COMPOUND A not to exceed 650 mg QD dose. Each dose cohort enrolled a minimum of 3 subjects. The first 3 subjects enrolled in each dosing cohort during the dose escalation portion of the study received a single dose of study drug on Day −3 (i.e., 3 days prior to the start of daily dosing) and underwent safety and PK/PD assessments over 72 hours to evaluate drug concentrations and 2-HG and α-KG levels. The next dose of study drug was on Cycle 1 Day 1 (C1D1) at which time daily dosing began. The initial dosing schedule was twice daily (approximately every 12 hours). Based on the emerging data, a once daily dosing schedule also has been implemented. […]
Subjects in the dose escalation phase and Part 1 Expansion also underwent PK/PD assessments over a 10-hour period on C1D15, C2D1, and C4D1. […] Available bone marrow biopsy samples also were assessed for 2-HG and α-KG levels. […]

[2] = tested on: subjects with advanced hematologic malignancies with an IDH2 mutation; test: Phase 1/2 study: safety profile (AEs, NCI CTCAE); assay type: in vivo, human; details: 100 mg
Excerpt: (§1) A DLT was defined as outlined below.
Monitoring of AEs, including determination of DLTs, serious adverse events (SAEs), and AEs leading to discontinuation; safety laboratory parameters; physical examination findings; vital signs; 12-lead ECGs; LVEF; and ECOG PS.

MDS and mIDH2 [3] = test: Example 2: clinical response to COMPOUND A monotherapy (IWG 2006 MDS criteria), survival; assay type: in vivo, human
Excerpt: (§2) Cheson et al., Blood. 108:419-425 (2006). […] Overall survival (OS) was estimated using Kaplan-Meier methods.

[4] = tested on: patients with MDS and mIDH2; test: Example 2: safety, treatment-emergent adverse events; assay type: in vivo, human
Excerpt: as §1, §2

MDS and mIDH2 [5] = test: Example 3: clinical response to COMPOUND A monotherapy (IWG 2006 MDS criteria), survival; assay type: in vivo, human
Excerpt: as §2

[6] = tested on: MDS and mIDH2 with co-occurring gene mutations; test: Example 3: association of co-occurring somatic mutations (FoundationOne Heme panel) with response to COMPOUND A; assay type: in vivo, human
Protocol: as §2
Analysis of MDS patients for association of gene mutations found with overall response rate (ORR) was performed on patients who received COMPOUND A and where a clinical response was captured for at least one time point during treatment (Table 12). An average of 2.6 genes were mutated in each patient beyond IDH2.

[7] = tested on: patients with MDS and mIDH2; test: Example 3: safety, treatment-emergent adverse events
Excerpt: Patients were relapsed or refractory to prior MDS therapy (Tx) or were not candidates for standard therapies. […] Evaluable patients required a response assessment at Cycle 2 Day 1 or later, or discontinued before assessment. Overall survival (OS) was estimated using Kaplan-Meier methods. Next-generation sequencing identified pre-existing co-occurring genomic alterations using the FoundationOne Heme test on purified mononuclear cells from BM or PB, to assess relationships between co-mutational status and clinical response.

[8] = 10 evaluable pts with prior HMA Tx
[9] = evaluable pts had ≧5% BM blasts at baseline
[10] = sustained ≧4 weeks, from beginning COMPOUND A Tx
[11] = 13 patients with prior HMA therapy
[12] = IWG 2006, denominators reflect eligibility
[13] = investigator-assessed, evaluable patients had ≧5% bone marrow blasts at baseline
[14] = programmatically adjudicated per IWG 2006 criteria, denominators reflect eligibility

## CC(C)(O)CNc1nc(Nc2ccnc(C(F)(F)F)c2)nc(-c2cccc(C(F)(F)F)n2)n1.CS(=O)(=O)O [COMPOUND A, mesylate salt of 2-methyl-1-[(4-[6-(trifluoromethyl)pyridin-2-yl]-6-{[2-(trifluoromethyl)pyridin-4-yl]amino}-1,3,5-triazin-2-yl)amino]propan-2-ol]
[1]
  overall response rate: 36.4%
2-HG plasma levels; most subjects with R140Q mutation, all doses, sustained reduction by Day 1 of Cycle 2
  inhibition of 2-HG plasma levels: up to 98%
2-HG plasma levels; subjects with R172K mutation
  exposure and inhibition of 2-HG versus dose: Increasing dose was associated with higher exposure and inhibition of 2-HG
[2]
  safety profile, including ≧Grade 3: consistent with that of lower doses
MDS and mIDH2 [3]; 4 pts with no prior MDS Tx
  responses in pts with no prior MDS Tx: a PR and mCR (1 each)
MDS and mIDH2 [3]; [8]
  pts with a response among pts who had received prior HMA Tx: 5 pts
  response rate among pts who had received prior HMA Tx: 50%
MDS and mIDH2 [3]; MDS pts N=16
  Best response Hematologic Improvement: (27) %
  Best response Hematologic Improvement, pts/evaluable: 4/15
MDS and mIDH2 [3]; MDS pts N=16, oral 60-300 mg daily, 28-day cycles
  Overall response rate (CR + PR + mCR + HI), responders/evaluable: 8/15
MDS and mIDH2 [3]; [9]
  Best response Complete Remission: (11) %
  Best response Marrow CR: (22) %
  Best response Marrow CR, pts/evaluable: 2/9
  Best response Partial Remission: (11) %
  Best response Partial Remission, pts/evaluable: 1/9
MDS and mIDH2 [3]; median follow-up of 4.7 months, Kaplan-Meier
  Median OS: not reached
MDS and mIDH2 [3]; [10]
  Median time to CR, PR, or mCR: 24 days
  time to CR, PR, or mCR, range: 17 to 87 days
MDS and mIDH2 [3]; sustained ≧8 weeks
  Median time to HI: 11 days
  time to HI, range: 11 to 60 days
[4]; MDS pts N=16
  Grade 3-4 TEAE hyperbilirubinemia (unconjugated): 5 n
  Grade 3-4 TEAE hypokalemia: 3 n
  Grade 3-4 TEAE pneumonia: 4 n
  Grade 3-4 TEAE thrombocytopenia: 3 n
  Grade 3-4 treatment-emergent AEs (TEAEs): 81%
  Grade 3-4 treatment-emergent AEs (TEAEs), pts: 13 pts
  grade 3-4 drug-related TEAE: 44%
  grade 3-4 drug-related TEAE, pts: Seven
[4]; MDS pts with mIDH2
  tolerability of daily oral monotherapy: well tolerated
MDS and mIDH2 [5]; [11]
  patients with a response among patients who had received prior HMA therapy: 7 patients
  response rate among patients who had received prior HMA therapy: 54%
MDS and mIDH2 [5]; [12]
  HI-E: 20%
  HI-E, patients/eligible: 3/15
  HI-N: 40%
  HI-N, patients/eligible: 4/10
  HI-P: 33%
  HI-P, patients/eligible: 4/12
MDS and mIDH2 [5]; MDS patients N=17
  Overall response rate (CR + PR + mCR + HI): 59%
  Overall response rate (CR + PR + mCR + HI), responders/evaluable: 10/17
MDS and mIDH2 [5]; [13]
  Best response Complete Remission: 9%
  Best response Complete Remission, patients/evaluable: 1/11
  Best response Marrow CR: 27%
  Best response Marrow CR, patients/evaluable: 3/11
  Best response Partial Remission: 9%
  Best response Partial Remission, patients/evaluable: 1/11
MDS and mIDH2 [5]; median follow-up of 7.5 months
  median overall survival: not reached
MDS and mIDH2 [5]; of patients who attained HI
  patients with bilineage improvement: 2 patients
  patients with trilineage improvement: 2 patients
MDS and mIDH2 [5]; [14]
  Any Hematologic Improvement (HI): 29%
  Any Hematologic Improvement (HI), patients/eligible: 5/17
MDS and mIDH2 [5]; treated MDS patients
  median time to response: 21 days
  time to response, range: 10 to 87 days
[6]; ASXL1 mutation
  ORR OR: 2.500
[6]; KRAS mutation
  ORR OR: 0.214
[6]; MDS patients with mIDH2
  clinical responses (≧HI) by co-occurring mutation: observed in the presence of all mutations except TP53, U2AF1, SETBP1, TCF3, STAG2, NRAS, JAK2 and BRAF
  mutations enriched in MDS patients with clinical response (≧HI): patients with mutations in SRSF2, MPL and ASXL1 are enriched
[6]; MPL mutation
  ORR OR: 4.231
[6]; SETBP1 mutation
  ORR OR: 0.082
[6]; SRSF2 mutation
  ORR OR: 12.000
[6]; TP53 mutation
  ORR OR: 0.082
[6]; U2AF1 mutation
  ORR OR: 0.082
[6]; patients with ASXL1 mutation
  ORR: 0.714
[6]; patients with KRAS mutation
  ORR: 0.333
[6]; patients with MPL mutation
  ORR: 1.000
[6]; patients with SETBP1 mutation
  ORR: 0.000
[6]; patients with SRSF2 mutation
  ORR: 0.857
[6]; patients with TP53 mutation
  ORR: 0.000
[6]; patients with U2AF1 mutation
  ORR: 0.000
[7]; MDS patients n=17
  Grade 3-4 TEAE Anemia: 18%
  Grade 3-4 TEAE Dyspnea: 12%
  Grade 3-4 TEAE Tumor lysis syndrome: 12%
  Grade 3-4 TEAE hypokalemia: 18%
  Grade 3-4 TEAE pneumonia: 24%
  Grade 3-4 TEAE thrombocytopenia: 24%
  Grade 3-4 treatment-emergent AEs (TEAEs): 82%
  Grade 3-4 treatment-emergent AEs (TEAEs), patients: 14 patients
  grade 3-4 drug-related TEAE, patients: Six
  treatment related deaths: No treatment related deaths were reported
[7]; n=17, tumor lysis syndrome [2], blood bilirubin increased, transaminitis
  COMPOUND A-related serious TEAEs, patients: 4 patients
[7]; n=17, unconjugated, includes hyperbilirubinemia and blood bilirubin increased
  Grade 3-4 TEAE Hyperbilirubinemia: 30%
